ΔTm and IC50 data for 25 compounds are collected here from US20230219925A1, “BENZO FIVE-MEMBERED NITROGEN HETEROCYCLIC COMPOUND AND APPLICATION THEREOF” (GUANGZHOU INSTITUTES OF BIOMEDICINE AND HEALTH CHINESE …, priority 2020, published 2023).

Like-named read-outs stand apart in the source and are kept apart here. A value given as a limit tells only on which side of the number the result lay.

One assay has as its target T1, hRORγ (Homo sapiens, UniProt P51449).
T1 sequence (P51449 1-518): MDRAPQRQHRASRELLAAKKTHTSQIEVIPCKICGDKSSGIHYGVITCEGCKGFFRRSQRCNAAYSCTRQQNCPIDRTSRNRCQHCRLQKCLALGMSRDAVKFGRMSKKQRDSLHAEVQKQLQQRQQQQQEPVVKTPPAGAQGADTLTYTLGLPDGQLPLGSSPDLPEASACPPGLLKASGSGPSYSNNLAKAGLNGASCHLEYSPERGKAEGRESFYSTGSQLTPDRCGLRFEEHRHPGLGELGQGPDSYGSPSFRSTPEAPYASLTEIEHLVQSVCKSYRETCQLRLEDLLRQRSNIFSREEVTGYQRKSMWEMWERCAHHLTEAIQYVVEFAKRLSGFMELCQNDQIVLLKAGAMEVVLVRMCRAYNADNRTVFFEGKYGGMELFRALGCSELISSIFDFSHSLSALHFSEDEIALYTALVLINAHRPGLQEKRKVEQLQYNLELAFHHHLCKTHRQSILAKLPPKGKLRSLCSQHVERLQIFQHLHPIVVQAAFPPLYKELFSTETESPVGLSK
As to the kind of experiment: protein thermal stability shift assay (TSA).

A further assay deals with T2, RORγ (Homo sapiens, UniProt P51449).
T2 sequence (P51449 269-508 limits assumed): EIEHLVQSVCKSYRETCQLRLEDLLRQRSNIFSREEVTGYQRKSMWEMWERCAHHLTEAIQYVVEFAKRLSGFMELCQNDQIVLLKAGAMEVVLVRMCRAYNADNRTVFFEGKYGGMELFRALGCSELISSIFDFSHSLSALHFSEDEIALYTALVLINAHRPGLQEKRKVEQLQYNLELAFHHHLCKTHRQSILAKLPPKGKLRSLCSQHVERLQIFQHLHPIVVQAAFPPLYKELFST
Kind of assay: luciferase dual reporter gene assay, Gal4-RORγLBD in 293T cells.

The mark [1] stands for this setting: read-out: ΔTm (TSA detection technique), hRORγ 10 μM, compound 200 μM.
Setting [2] is: IC50 (luciferase detection technique), RORγ transcriptional activity, Table 1.
[3] abbreviates: read-out: ΔTm (TSA detection technique).

For the compound `CCS(=O)(=O)c1ccc(CC(=O)Nc2ccc(-c3nc4ccc(F)cc4s3)cc2)cc1` [Example 30, 2-(4-(ethylsulfonyl)phenyl)-N-(4-(6-fluorobenzo[d]thiazol-2-yl)phenyl)acetamide], the thermal shift (ΔTm) at 200 µM at hRORγ (setting [1]) lay within 5 to 10 °C. This compound had an IC50 at RORγ (setting [2]) of 1000 to 10000 nM.
For `CCS(=O)(=O)c1ccc(CC(=O)Nc2ccc(-c3nc4cc(C)c(C)cc4n3Cc3ccccc3)cc2)cc1` [Example 85, N-(4-(1-benzyl-5,6-dimethyl-1H-benzo[d]imidazol-2-yl)phenyl)-2-(4-(ethylsulfonyl)phenyl)acetamide] the same measures were below 5 °C and 100 to 1000 nM.
For `Cc1ccc(CS(=O)(=O)Nc2ccc(-c3nc4ccc(C)cc4s3)cc2)cc1` [Example 12, N-(4-(6-methylbenzo[d]thiazol-2-yl)phenyl)-1-(p-tolyl)methanesulfonamide] the same measures were above 10 °C and 1000 to 10000 nM.
For `Cc1ccc(CC(=O)Nc2ccc(-c3nc4ccc(C)cc4s3)cc2)cc1` [Example 27, N-(4-(6-methylbenzo[d]thiazol-2-yl)phenyl)-2-(p-tolyl)acetamide] the same measures were above 10 °C and 10000 to 100000 nM.
`CCS(=O)(=O)c1ccc(CC(=O)Nc2ccc(-c3nc4cc(Cl)c(Cl)cc4n3Cc3ccccc3)cc2)cc1` [Example 86, N-(4-(1-benzyl-5,6-dichloro-1H-benzo[d]imidazol-2-yl)phenyl)-2-(4-(ethylsulfonyl)phenyl)acetamide]: the ΔTm at 200 µM on hRORγ (setting [1]) was below 5 °C. In addition, at RORγ (setting [2]), the IC50 lay in the range of 100 to 1000 nM.
For `CCS(=O)(=O)c1ccc(CC(=O)Nc2ccc(-c3nc4cc(C(=O)NC5CCCC5)ccc4n3[C@H](C)c3ccc(C)cc3)cc2)cc1` [Example 72, (R)—N-cyclopentyl-2-(4-(2-(4-(ethylsulfonyl)phenyl)acetylamino)phenyl)-1-(1-(p-tolyl)ethyl)-1H-benzo[d]imidazol-5-formamide] the same measures were 5 to 10 °C and below 100 nM.
Consider `Cc1ccc2nc(-c3ccc(NS(=O)(=O)Cc4ccc(C#N)cc4)cc3)sc2c1` [Example 16, 1-(4-cyanophenyl)-N-(4-(6-methylbenzo[d]thiazol-2-yl)phenyl)methanesulfonamide], for which the thermal shift (ΔTm) at 200 µM at hRORγ (setting [1]) is above 10 °C. For the same compound, the IC50 against RORγ (setting [2]) lay in the range of 1000 to 10000 nM.
As for `CCS(=O)(=O)c1ccc(CC(=O)Nc2ccc(-c3nc4ccc(OC)cc4s3)cc2)cc1` [Example 31, 2-(4-(ethylsulfonyl)phenyl)-N-(4-(6-methoxybenzo[d]thiazol-2-yl)phenyl) acetamide], on hRORγ (setting [1]), the ΔTm at 200 µM is 5 to 10 °C. Besides, the IC50 on RORγ (setting [2]) fell in the range of 10000 to 100000 nM.
As to `CCS(=O)(=O)c1ccc(CC(=O)Nc2ccc(-c3nc4ccc(C)cc4[nH]3)cc2)cc1` [Example 87, 2-(4-(ethylsulfonyl)phenyl)-N-(4-(6-methyl-1H-benzo[d]imidazol-2-yl)phenyl)acetamide], the ΔTm at 200 µM at hRORγ (setting [1]) was above 10 °C. Further, at RORγ (setting [2]), the IC50 is 1000 to 10000 nM.
For `CCS(=O)(=O)c1ccc(C(NC(C)=O)C(=O)Nc2ccc(-c3nc4cc(C(=O)NC(C)C)ccc4n3[C@@H](C)c3ccc(C)cc3)cc2)cc1` (stereo partly drawn) [Example 79, 2-(4-(2-acetylamino-2-(4-(ethylsulfonyl)phenyl)acetylamino)phenyl)-N-isopropyl-1-((S)-1-(p-tolyl)ethyl)-1H-benzo[d]imidazol-5-formamide] the same measures were 5 to 10 °C and 1000 to 10000 nM.
For `CCS(=O)(=O)c1ccc(CC(=O)Nc2ccc(-c3nc4ccc(C(=O)NC5CCCC5)cc4n3[C@H](C)c3ccc(C)cc3)cc2)cc1` [Example 70, (R)—N-cyclopentyl-2-(4-(2-(4-(ethylsulfonyl)phenyl)acetylamino)phenyl)-1-(1-(p-tolyl)ethyl)-1H-benzo[d]imidazol-6-formamide] the same measures were 5 to 10 °C and below 100 nM.
With `CCS(=O)(=O)c1ccc(C(NC(C)=O)C(=O)Nc2ccc(-c3nc4ccc(C)cc4n3[C@@H](C)c3ccc(C)cc3)cc2)cc1` (stereo partly drawn) [Example 73, 2-acetylamino-2-(4-(ethylsulfonyl)phenyl)-N-(4-(6-methyl-1-((S)-1-(p-tolyl)ethyl)-1H-benzo[d]imidazol-2-yl)phenyl)acetamide], the ΔTm at 200 µM at hRORγ (setting [1]) was below 5 °C. For the same compound, the IC50 against RORγ (setting [2]) is below 100 nM.
For `CCCCCn1c(-c2ccc(NC(=O)C(NC(C)=O)c3ccc(S(=O)(=O)CC)cc3)cn2)nc2ccc(C)cc21` (stereo not shown) [Example 81, 2-acetylamino-2-(4-(ethylsulfonyl)phenyl)-N-(6-(6-methyl-1-pentyl-1H-benzo[d]imidazol-2-yl)pyridin-3-yl)acetamide], on hRORγ (setting [3]), the ΔTm at 200 µM was below 5 °C. On RORγ, the IC50 is below 100 nM.
`Cc1cc(C)c(S(=O)(=O)Nc2ccc(-c3nc4ccc(C)cc4s3)cc2)c(C)c1` [Example 10, 2,4,6-trimethyl-N-(4-(6-methylbenzo[d]thiazol-2-yl)phenyl)benzenesulfonamide]: on hRORγ (setting [1]), the ΔTm at 200 µM was above 10 °C. Further, on RORγ (setting [2]), the IC50 was in the range of 1000 to 10000 nM.
On to `CCS(=O)(=O)c1ccc(C(NC(C)=O)C(=O)Nc2ccc(-c3nc4cc(C(=O)NC(C)C)ccc4n3[C@H](C)c3ccc(C)cc3)nc2)cc1` (stereo partly drawn) [Example 83, 2-(5-(2-acetylamino-2-(4-(ethylsulfonyl)phenyl)acetylamino)pyridin-2-yl)-N-isopropyl-1-((R)-1-(p-tolyl)ethyl)-1H-benzo[d]imidazol-5-formamide], for which the ΔTm at 200 µM on hRORγ (setting [1]) was below 5 °C. In addition, at RORγ (setting [2]), the IC50 was in the range of 1000 to 10000 nM.
In the case of `CCS(=O)(=O)c1ccc(CC(=O)Nc2ccc(-c3nc4ccc(C)cc4n3Cc3ccc(C#N)cc3)cc2)cc1` [Example 49, N-(4-(1-(4-cyanobenzyl)-6-methyl-1H-benzo[d]imidazol-2-yl)phenyl)-2-(4-(ethylsulfonyl)phenyl)acetamide], on hRORγ (setting [1]), the ΔTm at 200 µM was in the range of 5 to 10 °C. The IC50 on RORγ (setting [2]) is below 100 nM.
The matching figures for `CCS(=O)(=O)c1ccc(CC(=O)Nc2ccc(-c3nc4ccc(Cl)cc4n3Cc3ccccc3)cc2)cc1` [Example 52]: below 5 °C and below 100 nM.
For the compound `CCS(=O)(=O)c1ccc(C(NC(C)=O)C(=O)Nc2ccc(-c3nc4ccc(C)cc4n3[C@@H](C)c3ccc(C)cc3)cc2)cc1` (single isomer, unassigned) [Example 75], at RORγ (setting [2]), the IC50 was in the range of 100 to 1000 nM.
On to `CCS(=O)(=O)c1ccc(C(NC(C)=O)C(=O)Nc2ccc(-c3nc4ccc(C)cc4n3[C@H](C)c3ccc(C)cc3)nc2)cc1` (stereo partly drawn) [Example 82, 2-acetylamino-2-(4-(ethylsulfonyl)phenyl)-N-(6-(6-methyl-1-((R)-1-(p-tolyl)ethyl)-1H-benzo[d]imidazol-2-yl)pyridin-3-yl)acetamide], for which the ΔTm at 200 µM at hRORγ (setting [3]) was below 5 °C. The compound also came in with an IC50 at RORγ below 100 nM.
For `CCN1C(=O)c2cccc3c(S(=O)(=O)Nc4ccc(-c5nc6ccc(C)cc6s5)cc4)ccc1c23` [Example 11, 1-ethyl-N-(4-(6-methylbenzo[d]thiazol-2-yl)phenyl)-2-oxo-1,2-dihydrobenzo[cd]indol-6-sulfonamide] the same measures were above 10 °C and 10000 to 100000 nM.
On to `CCCCCn1c(-c2ccc(NC(=O)C(NC(C)=O)c3ccc(S(=O)(=O)CC)cc3)cc2)nc2ccc(C)cc21` (stereo not shown) [Example 76, 2-acetylamino-2-(4-(ethylsulfonyl)phenyl)-N-(4-(6-methyl-1-pentyl-1H-benzo[d]imidazol-2-yl)phenyl)acetamide], for which the ΔTm at 200 µM on hRORγ (setting [1]) was below 5 °C. On RORγ (setting [2]), this compound registered a half-maximal inhibitory concentration (IC50) below 100 nM.
The matching figures for `CCS(=O)(=O)c1ccc(CC(=O)Nc2ccc(-c3nc4cc(Cl)ccc4n3Cc3ccccc3)cc2)cc1` [Example 53]: 5 to 10 °C and below 100 nM.
The matching figures for `Cc1ccc2nc(-c3ccc(NS(=O)(=O)c4ccc([N+](=O)[O-])cc4)cc3)sc2c1` [Example 5, N-(4-(6-methylbenzo[d]thiazol-2-yl)phenyl)-4-nitrobenzenesulfonamide]: below 5 °C and 1000 to 10000 nM.
The matching figures for `CCS(=O)(=O)c1ccc(C(NC(C)=O)C(=O)Nc2ccc(-c3nc4cc(C(=O)NC(C)C)ccc4n3[C@H](C)c3ccc(C)cc3)cc2)cc1` (stereo partly drawn) [Example 78, 2-(4-(2-acetylamino-2-(4-(ethylsulfonyl)phenyl)acetylamino)phenyl)-N-isopropyl-1-((R)-1-(p-tolyl)ethyl)-1H-benzo[d]imidazol-5-formamide]: 5 to 10 °C and 1000 to 10000 nM.
Take `CCS(=O)(=O)c1ccc(C(NC(C)=O)C(=O)Nc2ccc(-c3nc4ccc(C)cc4n3[C@H](C)c3ccc(C)cc3)cc2)cc1` (stereo partly drawn) [Example 77, 2-acetylamino-2-(4-(ethylsulfonyl)phenyl)-N-(4-(6-methyl-1-((R)-1-(p-tolyl)ethyl)-1H-benzo[d]imidazopyridin-2-yl)phenyl)acetamide]: the ΔTm at 200 µM on hRORγ (setting [1]) is below 5 °C. Besides, the IC50 at RORγ (setting [2]) is below 100 nM.

Broadly, the ΔTm is the change in melting temperature against a reference sample. One may read the IC50 as the point on the concentration scale where inhibition reaches its midpoint. Low readings indicate greater potency in that assay, high ones weaker potency in that assay.
